Measurements taken from patent publication US9534010B2, “Stable indole-3-propionate salts of S-adenosyl-L-methionine” (HEBERT SAM-E LLC, priority 2013, dated 2017).

Experiments:
[1] = system: alcoholic liver cirrhosis; details: oral SAMe, compared with a placebo treated group; cited from earlier work
[2] = Storage stability at room temperature, checked by UV absorption spectra and HPLC; type: physicochemical; details: for maximum absorption peak at 420 nm (toxic degradation products of incorporated IPA): UV absorption spectra, initial and after eight months at room temperature; for SAMe degradation products by HPLC or UV absorption spectra: stored for eight months at room temperature
Source text: Stability of the IPA salt can be assessed by the method disclosed in Bottiglieri, T. (1990), Biomed Chromatogr, 4(6):239-41.
Ultraviolet-visible light absorption spectra were obtained for the product of Synthetic Example 1 and the product of Synthetic Example 2 (see FIG. 1 and FIG. 2, respectively). An ultraviolet-visible light absorption spectrum was also obtained at the same time for a blank sample (see FIG. 5) for control purposes.
The product of Synthetic Example 1 and the product of Synthetic Example 2 were then stored for eight months at room temperature, after which ultraviolet-visible light absorption spectra were obtained for the stored products (see […] and FIG. 4). An ultraviolet-visible light absorption spectrum was also obtained at the same time for a blank sample (see FIG. 6) for control purposes.
This is in stark contrast to the unstable nature of, for example, previously known salts of SAMe, such as the tosylate or 1,4-butanedisulfonate salts, the stability of which can be determined in the same manner as described herein.

Caco-2 cells = assay: In vitro Caco-2 permeability assay (apical to basolateral); details: for mean A->B Papp: analyte SAMe, test compound 2 mM, A side pH 6.5, B side pH 7.4, 2 hours
Description: The following in vitro permeability assay was conducted to determine the efficacy of certain absorption enhancers in increasing the permeability of a IPA salt of SAMe, or a pharmaceutically acceptable salt thereof, of the invention. See Stewart, B H, et al. (1995) “Comparison of intestinal permeabilities determined in multiple in vitro and in situ models: Relationship to absorption in humans,” Pharm. Res. 12:693.
The test compound was the IPA salt of SAMe 1,4-butanedisulfonate (the product of Synthetic Example 2) (SAMeIPA). The concentration of the test compound used in the assay was 2 mM.
The signal was optimized for each test formulation by ESI positive or negative ionization mode. An MS2 scan or a SIM scan was used to optimize the fragmenter voltage and a product ion analysis was used to identify the best fragment for analysis, and the collision energy was optimized using a product ion or MRM scan. An ionization ranking was assigned indicating the formulation's ease of ionization.
Samples were analyzed by LC/MS/MS using an Agilent 6410 mass spectrometer coupled with an Agilent 1200 HPLC and a CTC PAL chilled autosampler, all controlled by MassHunter software (Agilent). After separation on a C18 reverse phase HPLC column (Agilent, Waters, or equivalent) using an acetonitrile-water gradient system, peaks were analyzed by mass spectrometry (MS) using ESI ionization in MRM mode.
The permeability of SAMe and IPA were measured independently. […]
For Apical to Basolateral (A->B) permeability, the test formulation was added to the apical (A) side and amount of permeation is determined on the basolateral (B) side; for Basolateral to Apical (B>A) permeability, the test formulation was added to the B side and the amount of permeation was determined on the A side. […]
To verify the Caco-2 cell monolayers were properly formed, aliquots of the cell buffers were analyzed by fluorescence to determine the transport of the impermeable dye Lucifer Yellow.
Data was expressed as apparent permeability (Papp). […]

Molecule: C[S+](CC[C@H](N)C(=O)O)C[C@H]1O[C@@H](n2cnc3c(N)ncnc32)[C@H](O)[C@@H]1O (stereo partly drawn) [SAMe, S-adenosyl-L-methionine]
- overall mortality and/or progression to liver transplant [1]: 12%

Molecule: S-Adenosyl-L-methionine 1,4-butanedisulfonate indole-3-propionate [SAMeIPA]
- maximum absorption peak at 420 nm (toxic degradation products of incorporated IPA) [2]: no maximum absorption peaks at 420 nm were noted
- SAMe degradation products by HPLC or UV absorption spectra [2]: No SAMe degradation products were detected
- mean A->B Papp (Caco-2 cells): 0.20
- mean A->B Papp (Caco-2 cells; listed as S-adenosyl-L-methionine 1,4-butanedisulfonate indole-3-propionate salt): low
- fold increase in S-adenosyl-L-methionine permeability (Caco-2 cells; using trimethyl chitosan homopolymer as the absorption enhancer): 37.5 fold

Molecule: S-Adenosyl-L-methionine p-toluenesulfonate indole-3-propionate [Synthetic Example 1]
- maximum absorption peak at 420 nm (toxic degradation products of incorporated IPA) [2]: no maximum absorption peaks at 420 nm were noted
- SAMe degradation products by HPLC or UV absorption spectra [2]: No SAMe degradation products were detected
